Measurements published in PMC8035703, “Effect of Synchronous Versus Sequential Regimens on the Pharmacokinetics and Biodistribution of Regorafenib with Irradiation” (Pharmaceutics, 2021).
Read-outs that look alike come from different tables or passages of the source.

Assays:
[1] = test system: Huh-7 cells; assay: Cell viability assay (MTT), Huh-7; format: cell-based, human; settings: for IC50 / viability at 5 µM / viability at 10 µM / viability at 20 µM: Homo sapiens; for IC50: MTT after 24 h, read-out: IC50 (estimated concentration at which 50% of cells were killed); for viability at 5 µM: Huh-7, regorafenib 5 μM; for viability at 10 µM: Huh-7, regorafenib 10 μM; for viability at 20 µM: Huh-7, regorafenib 20 μM
Method: Human hepatoma Huh-7 and Hep G2 cell lines kindly provided by Professor Hu (Taipei Veterans General Hospital, Taiwan) were plated into 96-well plates (1 × 10^3 per well) with serum-containing medium (100 μL) for 1 day. Regorafenib at concentrations of 0, 5, 10 and 20 μmol/L (μM) was added to the plates. Then, the study groups were designed: the concurrent group (1 h after irradiation) or sequential group (24 h after irradiation) with sham RT (RT0 Gy), 2 Gy (RT2 Gy) and 9 Gy (RT9 Gy). Additionally, after 24 h, 20 μL of 5 mg/mL MTT was added to the plates and incubated for 3 h. The supernatant was discarded, the precipitate was dissolved in 200 μL DMSO, and the plates were read with a microplate reader at 570 nm and a reference wavelength of 630 nm.

[2] = test system: Huh-7 cells; assay: Apoptosis assay (Annexin-V FITC / PI); format: cell-based, human
Description: Annexin-V FITC and propidium iodide (PI) (BD Bioscience Pharmingen (San Diego, CA, USA)) were used to identify apoptotic cells by FACScan. Cells that were positive for Annexin V and negative for PI were defined as early apoptotic cells. Cells that were positive for both Annexin V and PI were defined as late apoptotic cells.

[3] = test system: CYP3A4; set-up: method as in PMID 21170960; settings: cited from earlier work
[4] = test system: HA22T cells; assay: Colony formation assay; format: cell-based, human
Method: HA22T cells kindly provided from professor Hu (Taipei Veterans General Hospital, Taiwan) were treated with trypsin to detach, counted and plated (400 per plate) into dishes measuring 60 mm, […] and allowed to grow for 10 days. Cells were stained, and colonies containing ≥ 50 cells were counted.

[5] = test system: Huh-7 cells; assay: Cell cycle analysis (propidium iodide, flow cytometry); format: cell-based, human
Method: The cells were collected, fixed and stained with propidium iodide. Flow cytometry was performed, using a Beckman Coulter Elite Epics sorter. The sub-G1 phase was used to quantify dead cells in the apoptosis assays. Cells were released into DMSO or regorafenib at 5, 10 and 20 μM in the concurrent or sequential groups with different RT doses. Floating and adherent cells were harvested at various time points, stained with propidium iodide and analyzed by flow cytometry.

[6] = test system: Huh-7 cells; assay: Morphological observation (Liu's stain); format: cell-based, human; settings: regorafenib 0-20 μM with RT
Method: Huh-7 cells were treated with regorafenib at concentrations of 0, 5, 10 and 20 μmol/L (μM) in the concurrent and sequential groups with different RT doses. Then, the cells were centrifuged by using Cytospin (Shandon Inc., Pittsburgh, PA). Liu’s A solution and Liu’s B solution were used on glass slides for 45 and 90 s, respectively. Then, a light microscope (Olympus, Tokyo, Japan) was used to observe the Huh-7 cells.

[7] = Hepatic and renal functions (GPT, creatinine) in rats; format: in vivo, Sprague-Dawley rats; settings: rat
Method: Glutamic-pyruvic transaminase (GPT) and […] were measured to check the influence of different modalities on hepatic function and renal function by a standard colorimetric method, using a Synchron LX20 spectrophotometer (Beckman Coulter) and manufacturer-supplied reagents.

**Q.** Which results are given for CNC(=O)c1cc(Oc2ccc(NC(=O)Nc3ccc(Cl)c(C(F)(F)F)c3)c(F)c2)ccn1 [regorafenib, Regorafenib]?
**A.** Effect on viability of Huh-7 cells (in words) ([1]; 0-20 μM): inhibited the viability of Huh-7 cells in a dose-dependent manner; IC50 ([1]; Huh-7, 24 h, Huh-7, RT0 Gy, S (regorafenib added 24 h following RT)): 12.8 µM; IC50 ([1]; Huh-7, 24 h, Huh-7, RT2 Gy, S (regorafenib added 24 h following RT)): 12.1 µM; IC50 ([1]; Huh-7, 24 h, Huh-7, RT9 Gy, S (regorafenib added 24 h following RT)): 15.2 µM; IC50 ([1]; Huh-7, Huh-7, RT0 Gy, C (regorafenib added 1 h following RT)): 6.56 µM; IC50 ([1]; Huh-7, Huh-7, RT2 Gy, C (regorafenib added 1 h following RT)): 6.38 µM; IC50 ([1]; Huh-7, Huh-7, RT9 Gy, C (regorafenib added 1 h following RT)): 6.36 µM; viability at 5 µM ([1]; Huh-7, RT0 Gy, C): 60.9 ± 1.8%; viability at 5 µM ([1]; Huh-7, RT0 Gy, S): 72.6 ± 1%; viability at 5 µM ([1]; Huh-7, RT2 Gy, C): 59.8 ± 5.5%; viability at 5 µM ([1]; Huh-7, RT2 Gy, S): 59.5 ± 2.7%; viability at 5 µM ([1]; Huh-7, RT9 Gy, C): 62.3 ± 14.1%; viability at 5 µM ([1]; Huh-7, RT9 Gy, S): 60.2 ± 5.6%; viability at 10 µM ([1]; Huh-7, RT0 Gy, C): 35.1 ± 1.6%; viability at 10 µM ([1]; Huh-7, RT0 Gy, S): 55.2 ± 1.2%; viability at 10 µM ([1]; Huh-7, RT2 Gy, C): 33.9 ± 2.7%; viability at 10 µM ([1]; Huh-7, RT2 Gy, S): 46 ± 2.9%; viability at 10 µM ([1]; Huh-7, RT9 Gy, C): 34.3 ± 5.3%; viability at 10 µM ([1]; Huh-7, RT9 Gy, S): 47.6 ± 3%; viability at 20 µM ([1]; Huh-7, RT0 Gy, C): 15.4 ± 1%; viability at 20 µM ([1]; Huh-7, RT0 Gy, S): 41.4 ± 0.4%; viability at 20 µM ([1]; Huh-7, RT2 Gy, C): 14.4 ± 0.8%; viability at 20 µM ([1]; Huh-7, RT2 Gy, S): 36.3 ± 1.4%; viability at 20 µM ([1]; Huh-7, RT9 Gy, C): 14.1 ± 0.7%; viability at 20 µM ([1]; Huh-7, RT9 Gy, S): 41.1 ± 1.7%; Viability: concurrent regorafenib with RT2 Gy and RT9 Gy vs regorafenib only (in words) ([1]; Huh-7 and Hep G2): no synergistic effects; Viability with regorafenib following RT2 Gy and RT9 Gy (in words) ([1]; Huh-7 and Hep G2, regorafenib 10 and 20 μM, sequential): higher than the regorafenib-only and concurrent regimen; Late apoptosis of Huh-7 cells (in words) ([2]; RT followed by regorafenib): enhanced the late apoptosis of Huh-7 cells; Apoptosis of Huh-7 cells (in words) ([2]; regorafenib concurrent with or following RT): caused Huh-7 cell apoptosis in a dose-dependent manner; Metabolic pathway (in words) [3]: metabolized via CYP3A4; Colony formation, regorafenib with RT vs regorafenib alone (in words) ([4]; regorafenib 1, 10 and 20 μM, concurrent or sequential with RT): synergic effects to inhibit the colony formation; Colony formation of HA22T (in words) ([4]; regorafenib 1 to 20 μM and RT (2 and 9 Gy)): colony formation of HA22T were decreased; Accumulation of sub-G1 Huh-7 cells (in words) ([5]; concurrent groups): correlated with the dose of regorafenib but was not correlated with RT or its absence; Accumulation of sub-G1 Huh-7 cells (in words) ([5]; sequential groups): correlated with the doses of regorafenib and RT; Morphological changes (in words) [6]: Cell shrinkage and pyknosis occurred in a dose-dependent manner; Creatinine at 240 min ([7]; concurrent RT2 Gy × 1 f'x): 0.25 ± 0.06 mg/dL; Glutamate pyruvate transaminase at 240 min ([7]; concurrent RT2 Gy × 1 f'x): 31.8 ± 5.3 UI; Creatinine at 240 min ([7]; concurrent RT9 Gy × 1 f'x): 0.21 ± 0.02 mg/dL; Glutamate pyruvate transaminase at 240 min ([7]; concurrent RT9 Gy × 1 f'x): 33.5 ± 8.8 UI; Glutamate pyruvate transaminase and creatinine, regorafenib with vs without RT ([7]; different regimens and doses): no significant differences; Creatinine at 240 min ([7]; regorafenib-only): 0.23 ± 0.04 mg/dL; Glutamate pyruvate transaminase at 240 min ([7]; regorafenib-only): 36.3 ± 15.0 UI; Creatinine at 240 min ([7]; sequential RT2 Gy × 1 f'x): 0.22 ± 0.04 mg/dL; Glutamate pyruvate transaminase at 240 min ([7]; sequential RT2 Gy × 1 f'x): 30.5 ± 6.0 UI; Creatinine at 240 min ([7]; sequential RT9 Gy × 1 f'x): 0.25 ± 0.04 mg/dL; Glutamate pyruvate transaminase at 240 min ([7]; sequential RT9 Gy × 1 f'x): 33.7 ± 5.2 UI
